Assay results: patent US10093683B2, “Factor XIa inhibitors” (Merck Sharp & Dohme Corp., priority 2014, dated 2018)

Each compound was assayed against human Factor XIa (Homo sapiens (Human), UniProt P03951) (assay: Factor XIa Assay). Settings: purified human Factor XIa 40 pM, Z-Gly-Pro-Arg-AFC 100 μM, pH 7.4; read-out: FXIa Ki.
Type: biochemical
In short: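 Purified human FXIa (40 pM final) hydrolysing fluorogenic Z-Gly-Pro-Arg-AFC (100 μM) in 50 mM HEPES pH 7.4, 150 mM NaCl, 5 mM CaCl2, 0.1% PEG 8000, at room temperature or 37° C. Initial velocities measured after enzyme–inhibitor equilibration; Ki from Vo/Vi versus [I], assuming competitive inhibition.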

Chain of human Factor XIa (P03951 388-625): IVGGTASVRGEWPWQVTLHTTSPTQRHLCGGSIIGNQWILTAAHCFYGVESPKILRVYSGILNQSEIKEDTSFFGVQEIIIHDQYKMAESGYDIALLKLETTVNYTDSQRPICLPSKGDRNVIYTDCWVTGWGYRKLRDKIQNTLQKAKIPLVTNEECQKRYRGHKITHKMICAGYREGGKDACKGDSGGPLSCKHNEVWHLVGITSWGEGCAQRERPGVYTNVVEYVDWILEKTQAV
Chain of human Factor XIa (P03951 19-387 partner): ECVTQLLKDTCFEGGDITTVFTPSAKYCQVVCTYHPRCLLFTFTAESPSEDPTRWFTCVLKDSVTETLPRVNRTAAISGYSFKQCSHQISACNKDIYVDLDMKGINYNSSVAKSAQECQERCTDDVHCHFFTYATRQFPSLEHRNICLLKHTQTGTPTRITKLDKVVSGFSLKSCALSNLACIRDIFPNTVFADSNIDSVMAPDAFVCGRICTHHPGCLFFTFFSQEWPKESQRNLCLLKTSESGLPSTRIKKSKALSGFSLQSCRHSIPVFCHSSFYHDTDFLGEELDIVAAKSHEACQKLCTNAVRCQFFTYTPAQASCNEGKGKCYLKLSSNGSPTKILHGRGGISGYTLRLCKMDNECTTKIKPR

| Structure (SMILES) | Ki |
| --- | --- |
| COC(=O)Nc1ccc(C(=O)N[C@@H](CC(=O)Nc2ccc(F)cc2)C(=O)N2CC[C@@]3(C2)OC(=O)Nc2ccc(Cl)cc23)cc1 [Example 91, methyl (4-(((S)-1-((R)-6-chloro-2-oxo-1,2-dihydrospiro[benzo[d][1,3]oxazine-4,3′-pyrrolidin]-1′-yl)-4-((4-fluorophenyl)amino)-1,4-dioxobutan-2-yl)carbamoyl)phenyl)carbamate] | 144 nM |
| COC(=O)Nc1ccc(C(=O)N[C@@H](CC(=O)NS(=O)(=O)C2CC2)C(=O)N2CC[C@@]3(C2)OC(=O)Nc2ccc(Cl)cc23)cc1 [Example 92, methyl (4-(((S)-1-((R)-6-chloro-2-oxo-1,2-dihydrospiro[benzo[d][1,3]oxazine-4,3′-pyrrolidin]-1′-yl)-4-(cyclopropanesulfonamido)-1,4-dioxobutan-2-yl)carbamoyl)phenyl)carbamate] | 56.1 nM |
| COC(=O)Nc1ccc(C(=O)N[C@@H](CC(=O)NC2COC2)C(=O)N2CC[C@@]3(C2)OC(=O)Nc2ccc(Cl)cc23)cc1 [Example 93, methyl (4-(((S)-1-((R)-6-chloro-2-oxo-1,2-dihydrospiro[benzo[d][1,3]oxazine-4,3′-pyrrolidin]-1′-yl)-4-(oxetan-3-ylamino)-1,4-dioxobutan-2-yl)carbamoyl)phenyl)carbamate] | 45.8 nM |
| COC(=O)Nc1ccc(C(=O)N[C@@H](CC(=O)N2CC(N(C)C)C2)C(=O)N2CCC[C@@]3(C2)OC(=O)Nc2ccc(Cl)cc23)cc1 [Example 96, methyl (4-(((S)-1-((R)-6-chloro-2-oxo-1,2-dihydrospiro[benzo[d][1,3]oxazine-4,3′-piperidin]-1′-yl)-4-(3-(dimethylamino)azetidin-1-yl)-1,4-dioxobutan-2-yl)carbamoyl)phenyl)carbamate] | 203 nM |
| COC(=O)Nc1ccc(C(=O)N[C@@H](CCF)C(=O)N2CCC[C@@]3(C2)OC(=O)Nc2ccc(Cl)cc23)cc1 [Example 103, methyl (4-(((S)-1-((R)-6-chloro-2-oxo-1,2-dihydrospiro[benzo[d][1,3]oxazine-4,3′-piperidin]-1′-yl)-4-fluoro-1-oxobutan-2-yl)carbamoyl)phenyl)carbamate] | 52 nM |
| COC(=O)Nc1ccc(C(=O)N[C@@H](CC2CCC(F)(F)CC2)C(=O)N2CCC[C@@]3(C2)OC(=O)Nc2ccc(Cl)cc23)cc1 [Example 106, methyl (4-(((S)-1-((R)-6-chloro-2-oxo-1,2-dihydrospiro[benzo[d][1,3]oxazine-4,3′-piperidin]-1′-yl)-3-(4,4-difluorocyclohexyl)-1-oxopropan-2-yl)carbamoyl)phenyl)carbamate] | 16.8 nM |
| COC(=O)Nc1ccc(C(=O)N[C@@H](CCNC(=O)C2CCC2)C(=O)N2CCC[C@@]3(C2)OC(=O)Nc2ccc(Cl)cc23)cc1 [Example 107, methyl (4-(((S)-1-((R)-6-chloro-2-oxo-1,2-dihydrospiro[benzo[d][1,3]oxazine-4,3′-piperidin]-1′-yl)-4-(cyclobutanecarboxamido)-1-oxobutan-2-yl)carbamoyl)phenyl)carbamate] | 50.7 nM |
| COC(=O)Nc1ccc(C(=O)N[C@@H](CCNC(=O)OC2CCC2)C(=O)N2CCC[C@@]3(C2)OC(=O)Nc2ccc(Cl)cc23)cc1 [Example 109, methyl (4-(((S)-1-((R)-6-chloro-2-oxo-1,2-dihydrospiro[benzo[d][1,3]oxazine-4,3′-piperidin]-1′-yl)-4-((cyclobutoxycarbonyl)amino)-1-oxobutan-2-yl)carbamoyl)phenyl)carbamate] | 48.3 nM |
| COC(=O)Nc1ccc(C(=O)N[C@@H](CCN2CCC2)C(=O)N2CC[C@@]3(C2)OC(=O)Nc2ccc(Cl)cc23)cc1 [Example 112, methyl (4-(((S)-4-(azetidin-1-yl)-1-((R)-6-chloro-2-oxo-1,2-dihydrospiro[benzo[d][1,3]oxazine-4,3′-pyrrolidin]-1′-yl)-1-oxobutan-2-yl)carbamoyl)phenyl)carbamate] | 219 nM |
| O=C1Nc2ccc(Cl)c(F)c2[C@@]2(CCCN(C(=O)[C@H](Cc3cncnc3)NC(=O)c3ccc4[nH]c(=O)ccc4c3)C2)O1 [Example 113, N-((S)-1-((R)-6-chloro-5-fluoro-2-oxo-1,2-dihydrospiro[benzo[d][1,3]oxazine-4,3′-piperidin]-1′-yl)-1-oxo-3-(pyrimidin-5-yl)propan-2-yl)-2-oxo-1,2-dihydroquinoline-6-carboxamide] | 15.6 nM |
| O=C1Nc2ccc(Cl)c(F)c2[C@@]2(CCCN(C(=O)[C@H](Cc3cnccn3)NC(=O)c3ccc4[nH]c(=O)ccc4c3)C2)O1 [Example 114, N-((S)-1-((R)-6-chloro-5-fluoro-2-oxo-1,2-dihydrospiro[benzo[d][1,3]oxazine-4,3′-piperidin]-1′-yl)-1-oxo-3-(pyrazin-2-yl)propan-2-yl)-2-oxo-1,2-dihydroquinoline-6-carboxamide] | 74.4 nM |
| O=C1Nc2ccc(Cl)cc2[C@]2(CCN(C(=O)[C@@H](Cc3ccccc3)C(=O)Nc3ccc(C(=O)O)cc3)C2)O1 [Example 121a, 4-((S)-2-benzyl-3-((S)-6-chloro-2-oxo-1,2-dihydrospiro[benzo[d][1,3]oxazine-4,3′-pyrrolidin]-1′-yl)-3-oxopropanamido)benzoic acid] | ≥ 5000 nM |
| O=C1Nc2ccc(Cl)cc2[C@]2(CCN(C(=O)[C@H](Cc3ccccc3)C(=O)Nc3ccc(C(=O)O)cc3)C2)O1 [Example 121b, 4-((R)-2-benzyl-3-((S)-6-chloro-2-oxo-1,2-dihydrospiro[benzo[d][1,3]oxazine-4,3′-pyrrolidin]-1′-yl)-3-oxopropanamido)benzoic acid] | ≥ 5000 nM |
| O=C1Nc2ccc(Cl)cc2[C@@]2(CCN(C(=O)[C@H](Cc3ccccc3)C(=O)Nc3ccc(C(=O)O)cc3)C2)O1 [Example 121c, 4-((R)-2-benzyl-3-((R)-6-chloro-2-oxo-1,2-dihydrospiro[benzo[d][1,3]oxazine-4,3′-pyrrolidin]-1′-yl)-3-oxopropanamido)benzoic acid] | 439 nM |
| O=C1Nc2ccc(Cl)cc2[C@@]2(CCN(C(=O)[C@@H](Cc3ccccc3)C(=O)Nc3ccc(C(=O)O)cc3)C2)O1 [Example 121d, 4-((S)-2-benzyl-3-((R)-6-chloro-2-oxo-1,2-dihydrospiro[benzo[d][1,3]oxazine-4,3′-pyrrolidin]-1′-yl)-3-oxopropanamido)benzoic acid] | 3780 nM |
| COC(=O)Nc1ccc(-c2c[nH]c([C@@H](Cc3ccccc3)C(=O)N3CC[C@@]4(C3)OC(=O)Nc3ccc(Cl)cc34)n2)cc1 [Example 122a, methyl (4-(2-((R)-1-((R)-6-chloro-2-oxo-1,2-dihydrospiro[benzo[d][1,3]oxazine-4,3′-pyrrolidin]-1′-yl)-1-oxo-3-phenylpropan-2-yl)-1H-imidazol-4-yl)phenyl)carbamate] | 33.6 nM |
| COC(=O)Nc1ccc(-c2c[nH]c([C@H](Cc3ccccc3)C(=O)N3CC[C@]4(C3)OC(=O)Nc3ccc(Cl)cc34)n2)cc1 [Example 122b, methyl (4-(2-((S)-1-((S)-6-chloro-2-oxo-1,2-dihydrospiro[benzo[d][1,3]oxazine-4,3′-pyrrolidin]-1′-yl)-1-oxo-3-phenylpropan-2-yl)-1H-imidazol-4-yl)phenyl)carbamate] | 4690 nM |
| COC(=O)Nc1ccc(-c2c[nH]c([C@@H](Cc3ccccc3)C(=O)N3CC[C@]4(C3)OC(=O)Nc3ccc(Cl)cc34)n2)cc1 [Example 122c, methyl (4-(2-((R)-1-((S)-6-chloro-2-oxo-1,2-dihydrospiro[benzo[d][1,3]oxazine-4,3′-pyrrolidin]-1′-yl)-1-oxo-3-phenylpropan-2-yl)-1H-imidazol-4-yl)phenyl)carbamate] | 5000 nM |
| COC(=O)Nc1ccc(-c2c[nH]c([C@H](Cc3ccccc3)C(=O)N3CC[C@@]4(C3)OC(=O)Nc3ccc(Cl)cc34)n2)cc1 [Example 122d, methyl (4-(2-((S)-1-((R)-6-chloro-2-oxo-1,2-dihydrospiro[benzo[d][1,3]oxazine-4,3′-pyrrolidin]-1′-yl)-1-oxo-3-phenylpropan-2-yl)-1H-imidazol-4-yl)phenyl)carbamate] | 364 nM |
| O=C1Nc2ccc(Cl)c(F)c2[C@@]2(CCCN(C(=O)C(Cc3ccccc3)c3nc(-c4csc(C(=O)O)c4F)c[nH]3)C2)O1 (stereo partly drawn) [Example 124, 4-(2-(1-((R)-6-chloro-5-fluoro-2-oxo-1,2-dihydrospiro[benzo[d][1,3]oxazine-4,3′-piperidin]-1′-yl)-1-oxo-3-phenylpropan-2-yl)-1H-imidazol-4-yl)-3-fluorothiophene-2-carboxylic acid] | 209 nM |
| O=C1Nc2ccc(Cl)cc2[C@@]2(CCCN(C(=O)C(Cc3ccc(F)cc3)c3nc(Cl)c(-c4ccc(F)cc4)[nH]3)C2)O1 (stereo partly drawn) [Example 127, (4R)-6-chloro-1′-(2-(4-chloro-5-(4-fluorophenyl)-1H-imidazol-2-yl)-3-(4-fluorophenyl)propanoyl)spiro[benzo[d][1,3]oxazine-4,3′-piperidin]-2(1H)-one] | 5000 nM |
| O=C1Nc2ccc(Cl)cc2[C@@]2(CCCN(C(=O)C(Cc3ccc(F)cc3)c3nc(Cl)c(-c4ccc(C(=O)O)cc4)[nH]3)C2)O1 (stereo partly drawn) [Example 128, 4-(4-chloro-2-(1-((R)-6-chloro-2-oxo-1,2-dihydrospiro[benzo[d][1,3]oxazine-4,3′-piperidin]-1′-yl)-3-(4-fluorophenyl)-1-oxopropan-2-yl)-1H-imidazol-5-yl)benzoic acid] | 8750 nM |
| COC(=O)Nc1ccc(-c2nnc([C@H](Cc3ccccc3)C(=O)N3CC[C@@]4(C3)OC(=O)Nc3ccc(Cl)c(F)c34)o2)cc1 [Example 129A, methyl (4-(5-((S)-1-((R)-6-chloro-5-fluoro-2-oxo-1,2-dihydrospiro[benzo[d][1,3]oxazine-4,3′-pyrrolidin]-1′-yl)-1-oxo-3-phenylpropan-2-yl)-1,3,4-oxadiazol-2-yl)phenyl)carbamate] | > 875 nM |
